According to paper PMC5758648, “Anti-glioma Natural Products Downregulating Tumor Glycolytic Enzymes from Marine Actinomycete Streptomyces sp. ZZ406” (Scientific Reports, 2018):
“Also recorded” adds a separate entry of the source. Where a SMILES comes first, the peptide text is derived from it.

Assays:
[1] = SRB cytotoxicity assay, normal human astrocytes; assay type: cell-based; details: normal human astrocytes (HA), mean ± s.d., n = 3
Method: (§1) Doxorubicin (DOX, a chemotherapeutic drug) was used as a positive control.
(§2) Sulforhodamine B (SRB) assay as described in previous studies[19],[20] was used to determine the activity of tested compounds inhibiting the proliferation of glioma U87MG, U251, SHG44 cells, and normal human astrocytes (HA). Doxorubicin (DOX) was used as a positive control (CON).

PKM2 = experiment: Western blot, PKM2 expression in U87MG cells; assay type: cell-based, human; details: 48 h, 1 at 30 μM, 2 at 60 μM, western blot vs blank control
Method: (§3) The active compounds 1 and 2 were further assayed for their effects on the expression levels of important tumor glycolytic enzymes (regulators) of HK2, PFKFB3, PKM2, and LDH5. […] Therefore, the effects of 1 and 2 on the expressions of these regulators in U87MG cells were evaluated. 2-Deoxyglucose (2-DG, a hexokinase inhibitor)[8], was used as a positive control. The U87MG cells were treated by 1 (30.0 μM), 2 (60.0 μM), or 2-DG (6.0 mM) for 48 h. Protein prepared from the compound-treated U87MG cells was subjected to western blot analysis. […] The full-length blots of Fig. 5 were provided as supplementary information (Fig. S61).
(§4) Figure 5 The expression levels of HK2, PFKFB3, PKM2, and LDH5 in glioma U87MG cells. U87-MG cells were treated with compounds 1 (30 μM), 2 (60 μM), or 2-DG (6.0 mM) for 48 h. Protein extracted from the compound-treated cells was subjected to western blot analysis.
(§5) Western blot analysis was used to detect the expression levels of tumor glycolytic regulators HK2, PFKFB3, PKM2, and LDH5. The detailed procedure, including protein sample preparation, determination of protein concentration, and western blot analysis, was described in the previous publication.

human glioma SHG44 cells = experiment: SRB antiproliferative assay, SHG44 glioma cells; assay type: cell-based; details: for Selectivity index (CC50/IC50), SHG44: CC50 in HA / IC50 in SHG44; for IC50: Homo sapiens, SHG-44, SRB assay, mean ± s.d., n = 3
Method: as §1, §2

[2] = Stability in human liver microsomes; assay type: in vitro ADME; details: 37 °C; for Percentage compared to the zero time point: human liver microsomes; on Percentage compared to the zero time point: tested at 12.5 µg/mL
Method: Therefore, it is interesting to understand the stability of compound 1 in human liver microsomes. Human liver microsomes were incubated with compound 1 at 37 °C in a water bath and the concentration of 1 at designed time points of 0, 15, 30, 60, 90, 120, 180, 240, and 360 min was determined by HPLC analysis. The results (Table 2 and Fig. 6) indicated the concentration of 1 had no change after the incubation of 30 min. The percentage of 1 was 98.4% (30 min), 70.2% (60 min), 65.3% (90 min), 54.8% (120 min), 35.5% (180 min), 28.2 (240 min), and 19.4% (360 min) when compared to 100.0% (0 min). The data indicated 1 was very stable in human liver microsomes in the first 30 min incubation with concentration gradually decreasing after the incubation of 30 min.
Compound 1 was dissolved in 100 mM NaPO4 solution (pH 7.4) to make a sample solution with a final concentration of 125 μg/mL. Human liver microsomes were diluted by 100 mM NaPO4 solution (pH 7.4) to make liver microsomal solution with a concentration of 1.25 mg/mL. A mixture of the sample solution (90 μL) and the liver microsomal solution (720 μL) was mixed well and then pre-incubated at 37 °C for 7 min. The pre-incubated mixture was initiated by adding 90 μL 10 mM NADPH solution, mixed well, and then incubated at 37 °C in a water bath. At each designed time point of 0, 15, 30, 60, 90, 120, 180, 240 and 360 min, aliquot 80 μL of the incubated mixture was pipette by micropipet and then quenched by the addition of 320 μL methanol. The reaction mixture was centrifuged at 12000 rpm for 10 min at 5 °C to give the supernatant, which was submitted to HPLC analysis.

LDH5 = experiment: Western blot, LDH5 expression in U87MG cells; assay type: cell-based, human; details: 48 h, 1 at 30 μM, 2 at 60 μM, western blot vs blank control
Method: as §3, §4, §5

human glioma U251 cells = experiment: SRB antiproliferative assay, U251 glioma cells; assay type: cell-based; details: for Selectivity index (CC50/IC50), U251: CC50 in HA / IC50 in U251; for IC50: Homo sapiens, U-251, SRB assay, mean ± s.d., n = 3
Method: as §1, §2

[3] = system: human glioma U87MG, U251 and SHG44 cells; experiment: SRB antiproliferative assay, results summarised over the glioma cell lines; assay type: cell-based; details: for IC50: Homo sapiens, Glioma cell, range over U87MG, read-out: IC50 values against different glioma cells (range); for Activity in inhibiting the proliferation of glioma cells: U87MG
Method: as §1, §2

human glioma U87MG cells = experiment: SRB antiproliferative assay, U87MG glioma cells; assay type: cell-based; details: for Selectivity index (CC50/IC50), U87MG: CC50 in HA / IC50 in U87MG; for IC50: Homo sapiens, U-87 MG, SRB assay, mean ± s.d., n = 3
Method: as §1
The procedure of the preparation of crude extract for bioactive assay was described in the previous publication. The crude extract was made to a concentration of 1.0 mg/mL. Sulforhodamine B (SRB) assay was used to evaluate the activity of the crude extract against the proliferation of glioma U87MG cells.
as §2

HK2 = experiment: Western blot, HK2 expression in U87MG cells; assay type: cell-based, human; details: 48 h, 1 at 30 μM, 2 at 60 μM, western blot vs blank control
Method: as §3, §4, §5

PFKFB3 = experiment: Western blot, PFKFB3 expression in U87MG cells; assay type: cell-based, human; details: 48 h, 1 at 30 μM, 2 at 60 μM, western blot vs blank control
Method: as §3, §4, §5

[4] = system: human glioma U87MG, U251 and SHG44 cells; parameters: method as in PMID 28049552; details: cited from earlier work
glioma = system: glioma; parameters: method as in PMID 20128807, PMID 15747063, PMID 29056497; details: cited from earlier work

In the case of `O=C(O)c1cc(CO)c2c(c1)C(=O)c1cccc(O)c1C2=O` [Compound 1, 1-hydroxymethyl-8-hydroxy-anthraquinone-3-carboxylic acid], the CC50 [1] is reported as greater than 100 µM, the “Expression level of PKM2” value (PKM2) is reported as “clearly reduced; also recorded: remarkably reduced” and the “Selectivity index (CC50/IC50), SHG44” value (human glioma SHG44 cells) is reported as greater than 12.3. The IC50 (human glioma SHG44 cells) was 8.1 ± 0.4 µM, the “Stability in human liver microsomes” value [2] was “good stability” and the “Concentration in human liver microsomes” value ([2]; 0 min) was 12400 ng/mL. For the same molecule, the “Concentration in human liver microsomes” value ([2]; 15 min) was 12000 ng/mL, the “Concentration in human liver microsomes” value ([2]; 30 min) was 12200 ng/mL and the “Concentration in human liver microsomes” value ([2]; 60 min) was 8700 ng/mL. The “Concentration in human liver microsomes” value ([2]; 90 min) was 8100 ng/mL, the “Concentration in human liver microsomes” value ([2]; 120 min) was 6800 ng/mL and the “Concentration in human liver microsomes” value ([2]; 180 min) was 4400 ng/mL. For the same molecule, the “Concentration in human liver microsomes” value ([2]; 240 min) was 3500 ng/mL, the “Concentration in human liver microsomes” value ([2]; 360 min) was 2400 ng/mL and the “Stability in human liver microsomes, first 30 min” value ([2]; first 30 min incubation) was “very stable”. The “Percentage compared to the zero time point” value (from here on “Percentage”) ([2]; 0 min) was 100.0%, the “Percentage” value ([2]; 15 min) was 96.8% and the “Percentage” value ([2]; 30 min) was 98.4%. For the same molecule, the “Percentage” value ([2]; 60 min) was 70.2%, the “Percentage” value ([2]; 90 min) was 65.3% and the “Percentage” value ([2]; 120 min) was 54.8%. The “Percentage” value ([2]; 180 min) was 35.5%, the “Percentage” value ([2]; 240 min) was 28.2% and the “Percentage” value ([2]; 360 min) was 19.4%. The “Expression level of LDH5” value (LDH5) was “clearly reduced; also recorded: remarkably reduced”, the “Selectivity index (CC50/IC50), U251” value (human glioma U251 cells) was greater than 17.5 and the IC50 (human glioma U251 cells) was 5.7 ± 0.3 µM. The IC50 [3] was 4.7 to 8.1 µM, the “Selectivity index (CC50/IC50), U87MG” value (human glioma U87MG cells) was greater than 21.3 and the IC50 (human glioma U87MG cells) was 4.7 ± 0.2 µM. For the same molecule, the “Expression level of HK2” value (HK2) was “clearly reduced; also recorded: remarkably reduced” and the “Expression level of PFKFB3” value (PFKFB3) was “clearly reduced; also recorded: remarkably reduced”.

With `Cc1cc(=O)c2c(CC(=O)C[C@@H](O)CC(=O)O)cccc2o1` [Compound 2, 5-(2′-oxo-4′R-hydroxy-hexanoic acid)-2-methyl-chromone] the CC50 [1] was greater than 100 µM, the “Expression level of PKM2” value (PKM2) was “clearly reduced; also recorded: remarkably reduced” and the “Selectivity index (CC50/IC50), SHG44” value (human glioma SHG44 cells) was greater than 3.8. The IC50 (human glioma SHG44 cells) was 25.8 ± 3.1 µM, the “Expression level of LDH5” value (LDH5) was “clearly reduced; also recorded: remarkably reduced” and the “Selectivity index (CC50/IC50), U251” value (human glioma U251 cells) was greater than 4.6. For the same molecule, the IC50 (human glioma U251 cells) was 21.6 ± 1.7 µM, the IC50 [3] was 21.6 to 25.8 µM and the “Selectivity index (CC50/IC50), U87MG” value (human glioma U87MG cells) was greater than 3.8. For the same molecule, the IC50 (human glioma U87MG cells) was 25.7 ± 2.4 µM, the “Expression level of HK2” value (HK2) was “clearly reduced; also recorded: remarkably reduced” and the “Expression level of PFKFB3” value (PFKFB3) was “clearly reduced; also recorded: remarkably reduced”.

For `CC(=O)N[C@@H](CC(C)C)C(=O)N[C@@H](CO)C(=O)N[C@@H](C)C(=O)O` [Compound 3, N-acetyl-L-leucine-L-serine-L-alanine] (Ac-Leu-Ser-Ala-OH), the “Activity in inhibiting the proliferation of glioma cells” value [3] was “inactive”.

With `CC(=O)N1CC(C(=O)O)CN1C(=O)C(C)C` (stereo not drawn) [Compound 4, 1-acetyl-2-isobutyrylpyrazolidine-4-carboxylic acid] the “Activity in inhibiting the proliferation of glioma cells” value [3] was “inactive”.

In the case of `Cc1cc(O)c2c(c1)C(=O)c1cccc(O)c1C2=O` [Compound 5, chrysophanol], the IC50 (human glioma SHG44 cells) is reported as 3 ± 0.2 µM, the IC50 (human glioma U251 cells) is reported as 1.2 ± 0.1 µM and the IC50 [3] is reported as 0.5 to 3 µM. For the same molecule, the IC50 (human glioma U87MG cells) was 0.5 ± 0.1 µM.

`Cc1c(C(=O)O)c(O)cc2c1C(=O)c1c(O)cccc1C2=O` [Compound 6, 3,8-dihydroxy-1-methyl-anthraquinone-2-carboxylic acid] showed an IC50 (human glioma SHG44 cells) of 36.3 ± 0.2 µM, an IC50 (human glioma U251 cells) of 13 ± 0.6 µM and an IC50 [3] of 10.4 to 36.3 µM. It also gave an IC50 (human glioma U87MG cells) of 10.4 ± 0.5 µM.

For `CC(C)[C@@H]1NC(=O)[C@H](C)OC(=O)[C@@H](C(C)C)NC(=O)[C@@H](C(C)C)OC(=O)[C@H](C(C)C)NC(=O)[C@H](C)OC(=O)[C@@H](C(C)C)NC(=O)[C@@H](C(C)C)OC(=O)[C@H](C(C)C)NC(=O)[C@H](C)OC(=O)[C@@H](C(C)C)NC(=O)[C@@H](C(C)C)OC1=O` [Compound 11, valinomycin], the “Activity in inhibiting the proliferation of different glioma cells” value [4] is given as “showed activity”.

For `COc1cccc2c1C(=O)c1c(O)c3c(c(O)c1C2=O)C[C@@](O)(C(=O)CO)C[C@@H]3O[C@H]1C[C@H](N)[C@H](O)[C@H](C)O1` [DOX, Doxorubicin, reference compound], the CC50 [1] was 8.7 ± 1.2 µM, the “Selectivity index (CC50/IC50), SHG44” value (human glioma SHG44 cells) was 3.5 and the IC50 (human glioma SHG44 cells) was 2.5 ± 1.1 µM. The “Selectivity index (CC50/IC50), U251” value (human glioma U251 cells) was 0.9, the IC50 (human glioma U251 cells) was 9.6 ± 1.3 µM and the IC50 [3] was 1.9 to 9.6 µM. For the same molecule, the “Selectivity index (CC50/IC50), U87MG” value (human glioma U87MG cells) was 4.6 and the IC50 (human glioma U87MG cells) was 1.9 ± 0.4 µM.

In the case of `O=C1c2cccc(O)c2C(=O)c2c(O)cc(CO)cc21` [aloe emodin], the “Activity against glioma” value (glioma) is given as “reported to have activity against glioma”.

In the case of `O=C(O)c1cc(O)c2c(c1)C(=O)c1cccc(O)c1C2=O` [rhein], the “Activity against glioma” value (glioma) is listed as “reported to have activity against glioma”.

For SZ-685C, the “Activity against glioma” value (glioma) is listed as “reported to have activity against glioma”.
